Data from patent publication US12338262B2 (Forward Therapeutics, Inc., priority 2022, dated 2025).

Target: TNF-α (Homo sapiens, UniProt P01375)
Test: TNF-α Induced HEK Blue Cellular Assay
Type: cell-based
Conditions: HEK Blue TNFα reporter cells, TNF-α 100 pg/ml, 24 hrs at 37° C., secreted alkaline phosphatase (QUANTI-Blue, 620 nm)
Description: TNF-α Induced HEK Bluet Cellular Assay
Test articles were diluted in DMSO and serially diluted into 384 well assay plate (Corning 3765), at final concentrations ranging from […] to 0.5 nM. HEK Blue™ TNFα reporter cells were added at a final density of 10,000 cell per well in assay media [DMEM (Gibco, cat #21063-029), 10% fetal bovine serum (ExcelBio, cat #FND500), 1% Penicillin-Streptomycin (Solarbio, cat #P1400-100]. TNF-α (R&D 210-TA-020/CF) was then added to the assay plate at a final concentration of 100 pg/ml. This plate was then incubated for 24 hrs at 37° C. and 5% CO2. Secreted alkaline phosphatase expression was then measured using QUANTI-Blue™ (Invivogen), according to manufacturer instructions and read on an Envision microplate reader at 620 nm.
Inhibition data for test compound over a range of concentration was plotted as percentage inhibition of the test compound (100%=maximum inhibition). IC50 values were determined after correcting for background [(sample read-mean of low control)/(mean of high control-mean of low control)] where by the low control is DMSO without stimulation and high control is DMSO with stimulation. The IC50 is defined as the concentration of test compound which produces 50% inhibition and was quantified using the 4 parameter logistic equation to fit the data.

Sequence of TNF-α (P01375 77-233 limits assumed): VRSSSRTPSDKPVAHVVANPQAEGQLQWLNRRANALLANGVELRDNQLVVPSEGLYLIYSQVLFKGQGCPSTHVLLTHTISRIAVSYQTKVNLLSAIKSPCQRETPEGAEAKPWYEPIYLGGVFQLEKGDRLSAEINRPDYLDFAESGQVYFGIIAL

| SMILES | IC50 [µM] |
| --- | --- |
| CC[C@@H](Nc1c(Cl)c(C)nc2cc(F)c(-c3ccc(P(C)(C)=O)nc3)nc12)c1ccccc1F [Example 22, 3-chloro-6-[6-(dimethylphosphoryl)pyridin-3-yl]-7-fluoro-N-[(1R)-1-(2-fluorophenyl)propyl]-2-methyl-1,5-naphthyridin-4-amine] | ≤ 0.1 |
| CC[C@H](Nc1c(Cl)c(C)nc2cc(F)c(-c3ccc(P(C)(C)=O)nc3)nc12)c1ccccc1F [Example 23, 3-chloro-6-[6-(dimethylphosphoryl)pyridin-3-yl]-7-fluoro-N-[(1S)-1-(2-fluorophenyl)propyl]-2-methyl-1,5-naphthyridin-4-amine] | ≤ 0.1 |
| CC[C@@H](Nc1c(Cl)c(C)nc2cc(F)c(-c3ccc(P(C)(C)=O)c(F)c3)nc12)c1ccccc1F [Example 24, 3-chloro-6-[4-(dimethylphosphoryl)-3-fluorophenyl]-7-fluoro-N-[(1R)-1-(2-fluorophenyl)propyl]-2-methyl-1,5-naphthyridin-4-amine] | ≤ 1 |
| Cc1nc2cc(F)c(-c3ccc(P(C)(C)=O)nc3)nc2c(N[C@H](c2ccccc2F)C(F)F)c1Cl [Example 26, (R)-(5-(7-chloro-8-((2,2-difluoro-1-(2-fluorophenyl)ethyl)amino)-3-fluoro-6-methyl-1,5-naphthyridin-2-yl)pyridin-2-yl)dimethylphosphine oxide] | 1 to 10 |
| Cc1nc2cc(F)c(-c3ccc(P4(=O)CCCC4)nc3)nc2c(N[C@H](C)c2cc(C#N)ccc2F)c1Cl [Example 27, 3-[(1R)-1-({3-chloro-7-fluoro-2-methyl-6-[6-(1-oxo-1lambda5-phospholan-1-yl)pyridin-3-yl]-1,5-naphthyridin-4-yl}amino)ethyl]-4-fluorobenzonitrile] | ≤ 0.1 |
| CCP(=O)(CC)c1ncc(-c2nc3c(N[C@H](C)c4cc(C#N)ccc4F)c(Cl)c(C)nc3cc2F)cn1 [Example 28, 3-[(1R)-1-({3-chloro-6-[2-(diethylphosphoryl)pyrimidin-5-yl]-7-fluoro-2-methyl-1,5-naphthyridin-4-yl}amino)ethyl]-4-fluorobenzonitrile] | ≤ 0.1 |
| Cc1nc2cc(F)c(-c3cnc(P(C)(C)=O)nc3)nc2c(NC(c2ccccc2F)C(F)F)c1Cl (centres unmarked) [Example 29, 3-chloro-N-[2,2-difluoro-1-(2-fluorophenyl)ethyl]-6-[2-(dimethylphosphoryl)pyrimidin-5-yl]-7-fluoro-2-methyl-1,5-naphthyridin-4-amine] | ≤ 1 |
| CC[C@H](Nc1c(Cl)c(C)nc2cc(F)c(-c3cnc(P(C)(C)=O)nc3)nc12)c1cc(C#N)ccc1F [Example 30, 3-[(1S)-1-({3-chloro-6-[2-(dimethylphosphoryl)pyrimidin-5-yl]-7-fluoro-2-methyl-1,5-naphthyridin-4-yl}amino)propyl]-4-fluorobenzonitrile] | ≤ 0.1 |
| Cc1nc2cc(F)c(N3CCC(P(C)(C)=O)CC3)nc2c(N[C@H](C)c2cc(C#N)ccc2F)c1Cl [Example 31, 3-[(1R)-1-({3-chloro-6-[4-(dimethylphosphoryl)piperidin-1-yl]-7-fluoro-2-methyl-1,5-naphthyridin-4-yl}amino)ethyl]-4-fluorobenzonitrile] | ≤ 0.1 |
| CCOP(=O)(OCC)c1ccc(-c2nc3c(N[C@H](C)c4cc(C#N)ccc4F)c(Cl)c(C)nc3cc2F)cn1 [Example 32, diethyl 5-(7-chloro-8-{[(1R)-1-(5-cyano-2-fluorophenyl)ethyl]amino}-3-fluoro-6-methyl-1,5-naphthyridin-2-yl)pyridin-2-ylphosphonate] | ≤ 0.1 |
| Cc1nc2cc(F)c(-c3ccc(OCP(C)(C)=O)nc3)nc2c(N[C@H](C)c2cc(C#N)ccc2F)c1Cl [Example 33, 3-[(1R)-1-[(3-chloro-6-{6-[(dimethylphosphoryl)methoxy]pyridin-3-yl}-7-fluoro-2-methyl-1,5-naphthyridin-4-yl)amino]ethyl]-4-fluorobenzonitrile] | ≤ 0.1 |
| Cc1nc2cc(F)c(-c3ccc(P(C)(C)=O)nc3)nc2c(N[C@@H](c2cc(C#N)ccc2F)C(F)F)c1Cl [Example 34, (S)-3-(1-((3-chloro-6-(6-(dimethylphosphoryl)pyridin-3-yl)-7-fluoro-2-methyl-1,5-naphthyridin-4-yl)amino)-2,2-difluoroethyl)-4-fluorobenzonitrile] | ≤ 0.1 |
| Cc1nc2cc(F)c(-c3ccc(P(C)(C)=O)nc3)nc2c(N[C@H](c2cc(C#N)ccc2F)C(F)F)c1Cl [Example 35, (R)-3-(1-((3-chloro-6-(6-(dimethylphosphoryl)pyridin-3-yl)-7-fluoro-2-methyl-1,5-naphthyridin-4-yl)amino)-2,2-difluoroethyl)-4-fluorobenzonitrile] | ≤ 1 |
| Cc1nc2cc(F)c(-c3cnc(P(C)(C)=O)nc3)nc2c(N[C@@H](c2cc(C#N)ccc2F)C(F)F)c1Cl [Example 36, (S)-3-(1-((3-chloro-6-(2-(dimethylphosphoryl)pyrimidin-5-yl)-7-fluoro-2-methyl-1,5-naphthyridin-4-yl)amino)-2,2-difluoroethyl)-4-fluorobenzonitrile] | ≤ 1 |
| Cc1nc2cc(F)c(-c3ccc(P(=O)(O)O)nc3)nc2c(N[C@H](C)c2cc(C#N)ccc2F)c1Cl [Example 37, diammonium 5-(7-chloro-8-{[(1R)-1-(5-cyano-2-fluorophenyl)ethyl]amino}-3-fluoro-6-methyl-1,5-naphthyridin-2-yl)pyridin-2-ylphosphonate] | 10 to 30 |
| Cc1nc2cc(F)c(-c3cnc(P(C)(C)=O)nc3)nc2c(N[C@H](c2cc(C#N)ccc2F)C(F)F)c1Cl [Example 38, (R)-3-(1-((3-chloro-6-(2-(dimethylphosphoryl)pyrimidin-5-yl)-7-fluoro-2-methyl-1,5-naphthyridin-4-yl)amino)-2,2-difluoroethyl)-4-fluorobenzonitrile] | ≤ 1 |
| Cc1nc2cc(F)c(-c3ccc(CP(C)(C)=O)nc3)nc2c(N[C@H](C)c2cc(C#N)ccc2F)c1Cl [Example 39, (R)-3-(1-((3-chloro-6-(6-((dimethylphosphoryl)methyl)pyridin-3-yl)-7-fluoro-2-methyl-1,5-naphthyridin-4-yl)amino)ethyl)-4-fluorobenzonitrile] | ≤ 1 |

Second part, the compound after the results:

| IC50 [µM] | SMILES |
| --- | --- |
| ≤ 0.1 | Cc1nc2ccc(-c3ccc(P(C)(C)=O)nc3)nc2c(N[C@H](C)c2cc(C#N)ccc2F)c1Cl [Example 40, 3-[(1R)-1-({3-chloro-6-[6-(dimethylphosphoryl)pyridin-3-yl]-2-methyl-1,5-naphthyridin-4-yl}amino)ethyl]-4-fluorobenzonitrile] |
| ≤ 1 | Cc1nc2ccc(-c3cnc(P(C)(C)=O)nc3)nc2c(N[C@H](C)c2cc(C#N)ccc2F)c1Cl [Example 41, 3-[(1R)-1-({3-chloro-6-[2-(dimethylphosphoryl)pyrimidin-5-yl]-2-methyl-1,5-naphthyridin-4-yl}amino)ethyl]-4-fluorobenzonitrile] |
| ≤ 0.1 | CCP(=O)(CC)c1ccc(-c2nc3c(N[C@H](C)c4cc(C#N)ccc4F)c(Cl)c(C)nc3cc2F)cn1 [Example 42, 3-[(1R)-1-({3-chloro-6-[6-(diethylphosphoryl)pyridin-3-yl]-7-fluoro-2-methyl-1,5-naphthyridin-4-yl}amino)ethyl]-4-fluorobenzonitrile] |
| ≤ 0.1 | Cc1nc2cc(F)c(-c3ccc(P(C)(C)=O)nc3)nc2c(N[C@H](C)c2cccc(C#N)c2)c1Cl [Example 43, 3-[(1R)-1-({3-chloro-6-[6-(dimethylphosphoryl)pyridin-3-yl]-7-fluoro-2-methyl-1,5-naphthyridin-4-yl}amino)ethyl]benzonitrile] |
| ≤ 0.1 | CC[C@H](Nc1c(Cl)c(C)nc2cc(F)c(-c3ccc(P(C)(C)=O)nc3)nc12)c1cc(C#N)ccc1F [Example 44, 3-[(1S)-1-({3-chloro-6-[6-(dimethylphosphoryl)pyridin-3-yl]-7-fluoro-2-methyl-1,5-naphthyridin-4-yl}amino)propyl]-4-fluorobenzonitrile] |
| ≤ 0.1 | Cc1nc2cc(F)c(-c3ccc(P(C)(C)=O)nc3)nc2c(N[C@@H](C)c2cccc(F)c2F)c1Cl [Example 45, 3-chloro-N-[(1S)-1-(2,3-difluorophenyl)ethyl]-6-[6-(dimethylphosphoryl)pyridin-3-yl]-7-fluoro-2-methyl-1,5-naphthyridin-4-amine] |
| ≤ 0.1 | Cc1nc2cc(F)c(-c3cnc(P(C)(C)=O)nc3)nc2c(N[C@H](C)c2cccc(C#N)c2)c1Cl [Example 46, 3-[(1R)-1-({3-chloro-6-[2-(dimethylphosphoryl)pyrimidin-5-yl]-7-fluoro-2-methyl-1,5-naphthyridin-4-yl}amino)ethyl]benzonitrile] |
| ≤ 1 | CC[C@@H](Nc1c(Cl)c(C)nc2cc(F)c(-c3cnc(P(C)(C)=O)nc3)nc12)c1cccc(C#N)c1 [Example 47, 3-[(1R)-1-({3-chloro-6-[2-(dimethylphosphoryl)pyrimidin-5-yl]-7-fluoro-2-methyl-1,5-naphthyridin-4-yl}amino)propyl]benzonitrile] |
| ≤ 0.1 | CC[C@@H](Nc1c(Cl)c(C)nc2cc(F)c(-c3ccc(P(C)(C)=O)nc3)nc12)c1cccc(C#N)c1 [Example 48, 3-[(1R)-1-({3-chloro-6-[6-(dimethylphosphoryl)pyridin-3-yl]-7-fluoro-2-methyl-1,5-naphthyridin-4-yl}amino)propyl]benzonitrile] |
